The results in this text go back to patent US20240067632A1, “WEE1 Degrading Compounds and Uses Thereof” (Bristol-Myers Squibb Company, priority 2022, published 2024).

Test [1] relates to MKN45 cells. As to the kind of experiment: MKN45 cell proliferation assay (Cell-Titer-Glo, 120 h). The class given is cell-based. The settings on record: for pEC50: Homo sapiens, MKN-45, 120 h, Cell-Titer-Glo, growth inhibition, read-out: MKN45 Cell Prolif. 120 hr (EC50); for MKN45 Cell Prolif. 120 hr (Ymin-Obs): minimal percent of DMSO control observed in the concentrations tested. The gist of the method: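 Growth inhibition was read as blank-corrected Cell-Titer-Glo luminescence expressed as percent DMSO control after 120 h at 37 C, 400 cells/well. Compounds tested in triplicate as 10-point half-log series from 1 or 10 uM, 0.1% DMSO; four-parameter fit gave EC50, and lowest observed percent control was reported as Ymin-obs.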

Test [2] deals with T1, WEE1 (Homo sapiens, UniProt P30291+Q96SW2).
T1 construct: C-terminal ePL-tagged (DiscoverX, Fremont, CA) full-length WEE1 expression construct; expressed in transfected cells; host or cells: LentiX-HEK293T (Invitrogen), lentiviral transduction; co-expressing GSPT1-GN (G576N, lacking the first 158 amino acids)
As to the kind of experiment: WEE1-ePL degradation assay (LentiX-WEE1-ePL-GSPT1-ND cells, InCELL Hunter luminescence, 4 h). The settings on record: 293T-LentiX WEE1-ePL cells; for 293T-LentiX WEE1-ePL Degradation 4 hr (Ymin): lower limit of the fit (0 = luciferase inhibitor, Ymax = DMSO control); for DC50: read-out: 293T-LentiX WEE1-ePL Degradation 4 hr (EC50). In kind it is cell-based. The gist of the method: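 Degradation EC50 was fitted by a four-parameter logistic model, with the upper limit taken from DMSO wells. Luminescence was read with InCELL Hunter reagent after 30 min at room temperature, following a 4 h, 37° C exposure of 2500 cells/well. Cells were LentiX-HEK293T carrying ePL-tagged full-length WEE1, dosed in 10 points (3-fold) from 1 or 10 uM.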

pEC50: −log10 of the molar value.

For orientation: pEC50 means the EC50 on a negative log10 scale, so that one unit is a factor of ten.

Consider `O=C1CCC(N2Cc3cc(O[C@H]4CCN(Cc5ccc6cnccc6c5)C4)ccc3C2=O)C(=O)N1` (stereo partly drawn) [3-(5-{[(3S)-1-[(isoquinolin-6-yl)methyl]pyrrolidin-3-yl]oxy}-1-oxo-2,3-dihydro-1H-isoindol-2-yl)piperidine-2,6-dione], for which, in test [1], the pEC50 was 7.28 and the “MKN45 Cell Prolif. 120 hr (Ymin-Obs)” value is 15.77. In test [2], the “293T-LentiX WEE1-ePL Degradation 4 hr (Ymin)” value came out at 25.71 and the DC50 is 17 nM.

Consider `O=C1CCC(N2Cc3cc(O[C@H]4CCN(Cc5ccc6ccncc6c5)C4)ccc3C2=O)C(=O)N1` (stereo partly drawn) [3-(5-{[(3S)-1-[(isoquinolin-7-yl)methyl]pyrrolidin-3-yl]oxy}-1-oxo-2,3-dihydro-1H-isoindol-2-yl)piperidine-2,6-dione], for which, in test [1], the pEC50 is 6.54 and the “MKN45 Cell Prolif. 120 hr (Ymin-Obs)” value turned out to be 54.45. In test [2], the “293T-LentiX WEE1-ePL Degradation 4 hr (Ymin)” value is recorded as 46 and the DC50 turned out to be 21 nM.

For the molecule `O=C1CCC(N2Cc3cc(O[C@H]4CCN(Cc5ccc6nc(C7(O)CCC7)ccc6c5)C4)ccc3C2=O)C(=O)N1` (stereo partly drawn) [3-(5-{[(3S)-1-{[2-(1-hydroxycyclobutyl)quinolin-6-yl]methyl}pyrrolidin-3-yl]oxy}-1-oxo-2,3-dihydro-1H-isoindol-2-yl)piperidine-2,6-dione], in test [1], the pEC50 is 8.62 and the “MKN45 Cell Prolif. 120 hr (Ymin-Obs)” value is on record as 7.94. In test [2], the “293T-LentiX WEE1-ePL Degradation 4 hr (Ymin)” value was 29.5 and the DC50 was determined as 2.58 nM.

Consider `COC1(c2ccc3cc(CN4CC[C@H](Oc5ccc6c(c5)CN(C5CCC(=O)NC5=O)C6=O)C4)ccc3n2)CCC1` (stereo partly drawn) [3-(5-{[(3S)-1-{[2-(1-methoxycyclobutyl)quinolin-6-yl]methyl}pyrrolidin-3-yl]oxy}-1-oxo-2,3-dihydro-1H-isoindol-2-yl)piperidine-2,6-dione], for which, in test [1], the negative-log EC50 (pEC50) was 8.48 and the “MKN45 Cell Prolif. 120 hr (Ymin-Obs)” value was 7.4. In addition, in test [2], the “293T-LentiX WEE1-ePL Degradation 4 hr (Ymin)” value is recorded as 31 and the DC50 stood at 2.69 nM.

As for `CN1CC(c2ccc3cc(CN4CC[C@H](Oc5ccc6c(c5)CN(C5CCC(=O)NC5=O)C6=O)C4)ccc3n2)C1` (stereo partly drawn) [3-(5-{[(3S)-1-{[2-(1-methylazetidin-3-yl)quinolin-6-yl]methyl}pyrrolidin-3-yl]oxy}-1-oxo-2,3-dihydro-1H-isoindol-2-yl)piperidine-2,6-dione], in test [1], the pEC50 is 7.03 and the “MKN45 Cell Prolif. 120 hr (Ymin-Obs)” value is given as 11.97. In test [2], the “293T-LentiX WEE1-ePL Degradation 4 hr (Ymin)” value turned out to be 32 and the DC50 came to 100 nM.

Consider `CN1CCC(c2ccc3cc(CN4CC[C@H](Oc5ccc6c(c5)CN(C5CCC(=O)NC5=O)C6=O)C4)ccc3n2)CC1` (stereo partly drawn) [3-(5-{[(3S)-1-{[2-(1-methylpiperidin-4-yl)quinolin-6-yl]methyl}pyrrolidin-3-yl]oxy}-1-oxo-2,3-dihydro-1H-isoindol-2-yl)piperidine-2,6-dione], for which, in test [1], the pEC50 was 7.66 and the “MKN45 Cell Prolif. 120 hr (Ymin-Obs)” value turned out to be 7.273. In addition, in test [2], the “293T-LentiX WEE1-ePL Degradation 4 hr (Ymin)” value is given as 30 and the DC50 was determined as 28.6 nM.

As for `O=C1CCC(N2Cc3cc(O[C@H]4CCN(Cc5ccc6nc(CC(F)F)ccc6c5)C4)ccc3C2=O)C(=O)N1` (stereo partly drawn) [3-(5-{[(3S)-1-{[2-(2,2-difluoroethyl)quinolin-6-yl]methyl}pyrrolidin-3-yl]oxy}-1-oxo-2,3-dihydro-1H-isoindol-2-yl)piperidine-2,6-dione], in test [1], the pEC50 is 6.46 and the “MKN45 Cell Prolif. 120 hr (Ymin-Obs)” value amounted to 21.74. In test [2], the “293T-LentiX WEE1-ePL Degradation 4 hr (Ymin)” value is on record as 43.5 and the DC50 amounted to 33.4 nM.

Take `CC1(C)CN(c2ncc3cc(CN4CC[C@H](Oc5ccc6c(c5)CN(C5CCC(=O)NC5=O)C6=O)C4)ccc3n2)CCO1` (stereo partly drawn) [3-(5-{[(3S)-1-{[2-(2,2-dimethylmorpholin-4-yl)quinazolin-6-yl]methyl}pyrrolidin-3-yl]oxy}-1-oxo-2,3-dihydro-1H-isoindol-2-yl)piperidine-2,6-dione]: in test [1], the pEC50 was 8.12 and the “MKN45 Cell Prolif. 120 hr (Ymin-Obs)” value is given as 9.381. In addition, in test [2], the “293T-LentiX WEE1-ePL Degradation 4 hr (Ymin)” value was found to be 31 and the DC50 was 11.6 nM.

`CC1(C)CN(c2ccc3cc(CN4CC[C@H](Oc5ccc6c(c5)CN(C5CCC(=O)NC5=O)C6=O)C4)ccc3n2)CCO1` (stereo partly drawn) [3-(5-{[(3S)-1-{[2-(2,2-dimethylmorpholin-4-yl)quinolin-6-yl]methyl}pyrrolidin-3-yl]oxy}-1-oxo-2,3-dihydro-1H-isoindol-2-yl)piperidine-2,6-dione]: in test [1], the pEC50 was 8.58 and the “MKN45 Cell Prolif. 120 hr (Ymin-Obs)” value is given as 10.48. In addition, in test [2], the “293T-LentiX WEE1-ePL Degradation 4 hr (Ymin)” value is on record as 32 and the DC50 worked out at 2.41 nM.

In the case of `CC1(C)CC(c2ccc3cc(CN4CC[C@H](Oc5ccc6c(c5)CN(C5CCC(=O)NC5=O)C6=O)C4)ccc3n2)CCO1` (stereo partly drawn) [3-(5-{[(3S)-1-{[2-(2,2-dimethyloxan-4-yl)quinolin-6-yl]methyl}pyrrolidin-3-yl]oxy}-1-oxo-2,3-dihydro-1H-isoindol-2-yl)piperidine-2,6-dione], in test [1], the negative-log EC50 (pEC50) was 8.67 and the “MKN45 Cell Prolif. 120 hr (Ymin-Obs)” value is given as 7.959. In addition, in test [2], the “293T-LentiX WEE1-ePL Degradation 4 hr (Ymin)” value was determined as 29 and the DC50 was found to be 2.56 nM.

In the case of `CC(C)(O)c1ccc2cc(CN3CC[C@H](Oc4ccc5c(c4)CN(C4CCC(=O)NC4=O)C5=O)C3)ccc2n1` (stereo partly drawn) [3-(5-{[(3S)-1-{[2-(2-hydroxypropan-2-yl)quinolin-6-yl]methyl}pyrrolidin-3-yl]oxy}-1-oxo-2,3-dihydro-1H-isoindol-2-yl)piperidine-2,6-dione], in test [1], the pEC50 is 7.85 and the “MKN45 Cell Prolif. 120 hr (Ymin-Obs)” value worked out at 11.2475. Moreover, in test [2], the “293T-LentiX WEE1-ePL Degradation 4 hr (Ymin)” value is recorded as 32.75 and the DC50 is 4.09 nM.

With `COC(C)(C)c1ccc2cc(CN3CC[C@H](Oc4ccc5c(c4)CN(C4CCC(=O)NC4=O)C5=O)C3)ccc2n1` (stereo partly drawn) [3-(5-{[(3S)-1-{[2-(2-methoxypropan-2-yl)quinolin-6-yl]methyl}pyrrolidin-3-yl]oxy}-1-oxo-2,3-dihydro-1H-isoindol-2-yl)piperidine-2,6-dione], in test [1], the negative logarithm of the EC50 (pEC50) was 8.53 and the “MKN45 Cell Prolif. 120 hr (Ymin-Obs)” value amounted to 6.21. Besides, in test [2], the “293T-LentiX WEE1-ePL Degradation 4 hr (Ymin)” value is 32.5 and the DC50 is 2.6 nM.

On to `O=C1CCC(N2Cc3cc(O[C@H]4CCN(Cc5ccc6nc(N7CCCC(F)(F)C7)ccc6c5)C4)ccc3C2=O)C(=O)N1` (stereo partly drawn) [3-(5-{[(3S)-1-{[2-(3,3-difluoropiperidin-1-yl)quinolin-6-yl]methyl}pyrrolidin-3-yl]oxy}-1-oxo-2,3-dihydro-1H-isoindol-2-yl)piperidine-2,6-dione], for which, in test [1], the pEC50 is 7.95 and the “MKN45 Cell Prolif. 120 hr (Ymin-Obs)” value came out at 12.35. For the same molecule, in test [2], the “293T-LentiX WEE1-ePL Degradation 4 hr (Ymin)” value came out at 25.84 and the DC50 turned out to be 18.5 nM.

`CC1(C)CCN(c2ccc3cc(CN4CC[C@H](Oc5ccc6c(c5)CN(C5CCC(=O)NC5=O)C6=O)C4)ccc3n2)C1=O` (stereo partly drawn) [3-(5-{[(3S)-1-{[2-(3,3-dimethyl-2-oxopyrrolidin-1-yl)quinolin-6-yl]methyl}pyrrolidin-3-yl]oxy}-1-oxo-2,3-dihydro-1H-isoindol-2-yl)piperidine-2,6-dione]: in test [1], the pEC50 was 8.41 and the “MKN45 Cell Prolif. 120 hr (Ymin-Obs)” value was found to be 7.37. Moreover, in test [2], the “293T-LentiX WEE1-ePL Degradation 4 hr (Ymin)” value is given as 29.67 and the DC50 amounted to 7.36 nM.

As for `CC1(C)COCCN1c1ncc2cc(CN3CC[C@H](Oc4ccc5c(c4)CN(C4CCC(=O)NC4=O)C5=O)C3)ccc2n1` (stereo partly drawn) [3-(5-{[(3S)-1-{[2-(3,3-dimethylmorpholin-4-yl)quinazolin-6-yl]methyl}pyrrolidin-3-yl]oxy}-1-oxo-2,3-dihydro-1H-isoindol-2-yl)piperidine-2,6-dione], in test [1], the pEC50 was 7.75 and the “MKN45 Cell Prolif. 120 hr (Ymin-Obs)” value stood at 17.3. Moreover, in test [2], the “293T-LentiX WEE1-ePL Degradation 4 hr (Ymin)” value was 31.5 and the DC50 came out at 4.82 nM.

Take `CC1(C)COCCN1c1ccc2cc(CN3CC[C@H](Oc4ccc5c(c4)CN(C4CCC(=O)NC4=O)C5=O)C3)ccc2n1` (stereo partly drawn) [3-(5-{[(3S)-1-{[2-(3,3-dimethylmorpholin-4-yl)quinolin-6-yl]methyl}pyrrolidin-3-yl]oxy}-1-oxo-2,3-dihydro-1H-isoindol-2-yl)piperidine-2,6-dione]: in test [1], the pEC50 was 8.68 and the “MKN45 Cell Prolif. 120 hr (Ymin-Obs)” value was 9.02. Besides, in test [2], the “293T-LentiX WEE1-ePL Degradation 4 hr (Ymin)” value worked out at 34 and the DC50 worked out at 2.84 nM.

With `O=C1CCC(N2Cc3cc(O[C@H]4CCN(Cc5ccc6nc(N7CC(O)C7)ccc6c5)C4)ccc3C2=O)C(=O)N1` (stereo partly drawn) [3-(5-{[(3S)-1-{[2-(3-hydroxyazetidin-1-yl)quinolin-6-yl]methyl}pyrrolidin-3-yl]oxy}-1-oxo-2,3-dihydro-1H-isoindol-2-yl)piperidine-2,6-dione], in test [1], the pEC50 was 7.57 and the “MKN45 Cell Prolif. 120 hr (Ymin-Obs)” value is 13.6. In addition, in test [2], the “293T-LentiX WEE1-ePL Degradation 4 hr (Ymin)” value was determined as 34 and the DC50 is 14.1 nM.

On to `COC1CN(c2ccc3cc(CN4CC[C@H](Oc5ccc6c(c5)CN(C5CCC(=O)NC5=O)C6=O)C4)ccc3n2)C1` (stereo partly drawn) [3-(5-{[(3S)-1-{[2-(3-methoxyazetidin-1-yl)quinolin-6-yl]methyl}pyrrolidin-3-yl]oxy}-1-oxo-2,3-dihydro-1H-isoindol-2-yl)piperidine-2,6-dione], for which, in test [1], the pEC50 was 8.17 and the “MKN45 Cell Prolif. 120 hr (Ymin-Obs)” value is 11.6. In test [2], the “293T-LentiX WEE1-ePL Degradation 4 hr (Ymin)” value amounted to 36 and the DC50 was found to be 2.3 nM.
